Where two headings read alike, the source gives them in different places.
Tests used:
[1] = tested on: L. infantum promastigotes; experiment: Antipromastigote assay (L. infantum), MTT colorimetric; type: cell-based, Leishmania (L.) infantum; conditions: 48 h; for IC50: Leishmania infantum, read-out: L. infantum IC50 promastigotes
Experimental: (§1) Table 1 depicts the antileishmanial (L. infantum) activity evaluation performed against both the amastigote form (evaluated microscopically using an ex vivo intracellular model of mice macrophages) and the promastigote one (using an MTT colorimetric method).[32],[33] The cytotoxicity was evaluated against NCTC cells using an MTT colorimetric method and the selectivity index was determined using the ratio between the CC50 values (NCTC cells) and the IC50 values (amastigotes).[32] […] With respect to the substituents on the C ring, larger, hydrophobic groups conferred greater bioactivity (e.g., 9b–d), whereas small, hydrophilic groups such as a hydroxyl group afford modest to poor bioactivity.
(§2) Leishmania (L.) infantum (MHOM/BR/1972/LD) amastigotes were obtained from golden hamsters (Mesocricetus auratus) spleens following 60-70 days of infection via differential centrifugation. The Stauber method was used to determine the number of parasites.12 […]
Biological activity assays
Antipromastigote Assay (L. infantum)
L. infantum promastigotes (1 × 10^6 cells/well) were added to a 96-well plates. Treatment of the cells with selected compounds (serially diluted 0.14 to 200 μM) was performed in M199 medium supplemented with 0.25% hemin and 10% fetal bovine serum for 48 h at 24 °C. The MTT colorimetric assay was used to determine the activity (IC50) of the compounds. Miltefosine was used as a standard drug and untreated promastigotes were used as a negative control. The half inhibitory concentration (IC50) was determined from a sigmoidal regression of the concentration-response curves generated in GraphPadPrism7. […]

[2] = tested on: L. infantum amastigotes; experiment: Antiamastigote assay (L. infantum), ex vivo intracellular model of mice macrophages, microscopy; type: cell-based, Leishmania (L.) infantum; conditions: 96 h, read-out: L. infantum IC50 amastigotes
Experimental: as §1, §2
(§3) Peritoneal macrophages were obtained via washing the peritoneal cavity of BALB/c mice with 10% foetal calf serum supplemented RPMI-1640 medium (pH 7.2). The macrophages were maintained in a humidified incubator at 37 °C and with 5% CO2.
(§4) Biological activity assays […]
Antiamastigote Assay (L. infantum)
Peritoneal macrophages (1 × 10^5/well) were added to a 16-well slide chambers (NUNC) and incubated with 5% CO2 at 37 °C. The cells were subsequently infected with L. infantum amastigotes (10:1 amastigotes/macrophage) for 24 h. Treatment of the cells with selected compounds (serially diluted 1.2 to 150 μM) was performed in a humidified incubator for 96 h at 37 °C and with 5% CO2. Untreated cells were used as a negative control and miltefosine was used as a standard drug. The treated cells were fixed on slides with methanol, stained with Giemsa and observed under a light microscope.13 The infection index was used in order to determine the half inhibitory concentration (IC50) (no. infected macrophages × no. amastigotes / total no. […]

[3] = tested on: T. cruzi trypomastigotes; experiment: Antitrypomastigote assay (T. cruzi), resazurin; type: cell-based, Trypanosoma (T.) cruzi; conditions: 24 h, read-out: T. cruzi IC50 trypomastigotes
Experimental: (§5) T. cruzi also assumes several cell morphologies during its lifecycle, which differ between the insect vector and mammalian host. In the latter environment, the parasite transitions between extracellular bloodstream trypomastigotes and intracellular amastigotes; both forms are clinically relevant, particularly during the acute stage of Chagas disease.[34] In this work, antitrypanosomal activity was tested against both the amastigote form (evaluated microscopically using an ex vivo intracellular model using mice macrophages) and the trypomastigote form (using the resazurin in vitro assay).[33],[35] […] In silico predictions of pharmacokinetic profiles were carried out using the SwissADME webtool (see the Supporting Information for details).[36] […]
(§6) […] Cultivation was performed in 2% fetal calf serum supplemented RPMI-1640 medium.
(§7) The trypomastigotes were maintained in a humidified incubator at 37 °C and with 5% CO2. […]
as §4
The half inhibitory concentration (IC50) was determined from a sigmoidal regression of the concentration-response curves generated in GraphPadPrism7. […]
Treatment of the cells with selected compounds (serially diluted 1.2 to 150 μM) was performed in a humidified incubator in RPMI 1640 medium for 24 h at 37 °C and with 5% CO2. Resazurin (0.011% in PBS) was added subsequently to verify parasite viability. Benznidazole was used as a standard drug. The optical density was determined at 570 nm using the FilterMax F5 (Molecular Devices). […]

[4] = tested on: T. cruzi amastigotes; experiment: Antiamastigote assay (T. cruzi), ex vivo intracellular model using mice macrophages, microscopy; type: cell-based, Trypanosoma (T.) cruzi; conditions: Trypanosoma cruzi, Peritoneal macrophage, 48 h, ± SD, read-out: T. cruzi IC50 amastigotes
Experimental: as §5, §6, §7, §3, §4
Peritoneal macrophages (1 × 10^5 cells/well) obtained from the peritoneal cavity of BALB/C mice were added to 16-well chambers (NUNC, Thermo Fischer Scientific). The cells were infected with trypomastigotes (10:1 parasites/macrophage) for 2 h. Then treatment of the infected macrophages with selected compounds (serially diluted 1.2 to 100 μM) was performed in a humidified incubator for 48 h at 37 °C and with 5% CO2. The treated cells were fixed on slides using methanol, stained with Giemsa and observed under a light microscope (EVOS M5000, Thermo, USA) with digital image equipment. The infection index was used in order to determine the half inhibitory concentration (IC50) (no. infected macrophages × no. amastigotes / total no.

[5] = Mammalian toxicity, MTT colorimetric; type: cell-based, murine; conditions: mouse
Experimental: as §1, with “bioactivity. […]” for “bioactivity.”
Murine conjunctive fibroblasts NCTC clone 929 (ATCC) were maintained in 10% foetal calf serum supplemented RPMI-1640 medium (pH 7.2) at 37 °C in a humidified incubator with 5% CO2. […]
as §4
NCTC cells (6 × 10^4/well) were added to a 96-well plate. Treatments of the cells with selected compounds (serially diluted 1.5 to 200 μM) was performed in a humidified incubator for 96 h at 37 °C and with 5% CO2.
The MTT colorimetric method was used to determine the 50% cytotoxic concentration (CC50) and the selectivity index (CC50 against NCTC cells/IC50 against amastigotes).15 […]
[…] At 6 h and 24 h post-treatment, a 1 mL aliquot was taken for imaging. The cell cycle experiment was preformed twice independently.
Generation of mNG::RAD51 tagged cell line
The single-stranded DNA-binding protein RAD51, associated with DNA Repair, LmxM.28.0550 was tagged with endogenous fluorescent protein mNeonGreen (mNG) at the N-terminus. […]
Primers for constructs and sgRNA were designed using LeishGEdit (http://www.leishGEdit.net).
PCR was at 94 °C for 5 min, followed by 35 cycles at 94 °C (15 sec), 65 °C (15 sec), 72 °C (2 min) then finally 72 °C (1 min).
PCR was at 94 °C for 30 sec, followed by 30 cycles at 94 °C (30 sec), 60 °C (30 sec), 72 °C (30 sec) then finally 72 °C (2 min). […] Combined PCR products were precipitated for 20 min with 10 μL 3M sodium acetate and 300 μL EtOH, pelleted at 14000 min-1 30 min, washed once with 70% EtOH, re-pelleted and resuspended in […]
Promastigotes (1 × 10^7 cells) were combined with PCR products and transfected using the Amaxa Nucleofector II.17 Electroporation was performed using 2 mm cuvettes on the X-100 program, followed by immediate suspension in pre-warmed M199 medium. Successful transfectants were selected with 20 μg mL-1 Puromycin 15 h after transfection, taking 4 days to reach stable growth in culture. mNG::RAD51 nuclear foci studies mNG::RAD51 promastigotes (5 × 10^6 cells mL-1) in 7 mL of M199 medium were treated with 7 μL o f compound (S)-9a or (S)-9b dissolved in DMSO giving a final concentration of 50 μM. Phleomycin was used as a positive control at a final concentration of 25 μg mL-1. At T = 0, 15, 30, 60 min, and 2, 6, 24 h post-treatment a 0.8 mL aliquot was taken for imaging.

[6] = Leishmania infantum, Peritoneal macrophage, ± SD, intracellular, peritoneal macrophages
[7] = Trypanosoma cruzi, ± SD, resazurin

SMILES: COc1cc2c(cc1OC)[C@@H](Cc1ccc(Br)cc1)N(C)CC2 [(R)-9a]
- IC50 ([1]; ± SD, MTT): 15.5 ± 5.8 µM
- IC50 [2, 6]: 23.4 ± 3.4 µM
- IC50 [3, 7]: 28.3 ± 11.7 µM
- IC50 [4]: 31.8 ± 4.3 µM
- CC50 at 96 h [5]: 86.8 ± 2.9 µM

SMILES: COc1cc2c(cc1OC)[C@@H](Cc1ccc(OC)c(OCc3ccccc3)c1)N(C)CC2 [(R)-9b]
- IC50 ([1]; ± SD, MTT): 3.3 ± 1.6 µM
- IC50 [2, 6]: 13.1 ± 0.8 µM
- IC50 [3, 7]: 72.3 ± 3 µM
- CC50 at 96 h [5]: 57.3 ± 3.3 µM

SMILES: COc1ccc(COc2ccc(C[C@@H]3c4cc(OC)c(OC)cc4CCN3C)cc2Br)cc1 [(R)-9c]
- IC50 ([1]; ± SD, MTT): 3.5 ± 1.2 µM
- IC50 [2, 6]: > 150 µM
- IC50 [3, 7]: < 10 µM
- IC50 ([3]; ± SD, resazurin): 8.5 ± 3.1 µM
- IC50 [4]: > 100 µM
- CC50 at 96 h [5]: 13.4 ± 1.3 µM

SMILES: COc1cc2c(cc1OC)[C@@H](Cc1ccc(OCc3ccccc3)cc1)N(C)CC2 [(R)-9d]
- IC50 ([1]; ± SD, MTT): 1.1 ± 0.5 µM
- IC50 [2, 6]: < 10 µM
- IC50 ([2]; ± SD, intracellular, peritoneal macrophages): 9.4 ± 0.5 µM
- IC50 [3, 7]: 16.5 ± 6.1 µM
- IC50 [4]: 6.2 ± 5.9 µM
- CC50 at 96 h [5]: 28.1 ± 0.5 µM

SMILES: COc1ccc(C[C@@H]2c3cc(OC)c(OC)cc3CCN2C)cc1O [(R)-10a, (–)-laudanidine]
- IC50 [1]: 30.2 ± 4.8 µM
- IC50 ([2]; Leishmania infantum, Peritoneal macrophage): > 150 µM
- IC50 ([3]; Trypanosoma cruzi): > 150 µM
- CC50 at 96 h ([5]; ± SD, NCTC cells, MTT, 96 h, read-out: CC50): > 200 µM

SMILES: COc1cc2c(cc1OC)[C@@H](Cc1ccc(O)cc1)N(C)CC2 [(R)-10b, (–)-armepavine]
- IC50 ([1]; ± SD, MTT): 4.8 ± 0.8 µM
- IC50 [2, 6]: > 150 µM
- IC50 [3, 7]: 107 ± 1.8 µM
- IC50 [4]: > 100 µM
- CC50 at 96 h [5]: > 200 µM

SMILES: COc1cc2c(cc1OC)[C@@H](Cc1ccc(Oc3cc(C[C@@H]4c5cc(OC)c(OC)cc5CCN4C)ccc3OC)cc1)N(C)CC2 [(R,R)-11, (−)-O-methyldauricine]
- IC50 ([1]; ± SD, MTT): 0.7 ± 0.1 µM
- IC50 [2, 6]: > 150 µM
- IC50 [3, 7]: 7.2 ± 0.6 µM
- IC50 [4]: 1.5 ± 0.2 µM
- CC50 at 96 h [5]: 11.4 ± 4.8 µM

SMILES: COc1ccc(COc2ccc(C[C@@H]3c4cc(OC)c(OC)cc4CCN3C)cc2Oc2ccc(C[C@@H]3c4cc(OC)c(OC)cc4CCN3C)cc2)cc1 [(R,R)-12]
- IC50 ([1]; ± SD, MTT): 1.1 ± 0.5 µM
- IC50 [2, 6]: > 150 µM
- IC50 [3, 7]: 7.3 ± 1.5 µM
- IC50 [4]: > 100 µM
- CC50 at 96 h [5]: 13.9 ± 1.6 µM

SMILES: COc1cc2c(cc1OC)[C@@H](Cc1ccc(Oc3cc(C[C@@H]4c5cc(OC)c(OC)cc5CCN4C)ccc3O)cc1)N(C)CC2 [(R,R)-13, (–)-dauricine]
- IC50 ([1]; ± SD, MTT): 3.2 ± 1.1 µM
- IC50 [2, 6]: 3.7 ± 0.6 µM
- IC50 [3, 7]: 3.7 ± 2.9 µM
- IC50 [4]: > 100 µM
- CC50 at 96 h [5]: 7 ± 1 µM

SMILES: COc1cc2c(cc1OC)[C@@H](Cc1ccc(OC)c(Oc3ccc(C[C@H]4c5cc(OC)c(OC)cc5CCN4C)cc3)c1)N(C)CC2 [(R,S)-11]
- IC50 ([1]; ± SD, MTT): 0.6 ± 0.1 µM
- IC50 [2, 6]: > 150 µM
- IC50 [3, 7]: 6.5 ± 2.1 µM
- IC50 [4]: > 100 µM
- CC50 at 96 h [5]: 7.3 ± 0.7 µM

SMILES: COc1ccc(COc2ccc(C[C@@H]3c4cc(OC)c(OC)cc4CCN3C)cc2Oc2ccc(C[C@H]3c4cc(OC)c(OC)cc4CCN3C)cc2)cc1 [(R,S)-12]
- IC50 ([1]; ± SD, MTT): 0.4 ± 0.2 µM
- L. infantum IC50 promastigotes ([1]; ± SD, MTT): submicromolar
- IC50 [2, 6]: > 150 µM
- IC50 [3, 7]: 1.3 ± 0.7 µM
- IC50 [4]: > 100 µM
- CC50 at 96 h [5]: 2.7 ± 1.6 µM

SMILES: COc1cc2c(cc1OC)[C@@H](Cc1ccc(Oc3cc(C[C@H]4c5cc(OC)c(OC)cc5CCN4C)ccc3O)cc1)N(C)CC2 [(R,S)-13]
- IC50 ([1]; ± SD, MTT): 3.2 ± 1.7 µM
- IC50 [2, 6]: > 150 µM
- IC50 [3, 7]: 10.1 ± 3.9 µM
- IC50 [4]: 2.8 ± 0.6 µM
- CC50 at 96 h [5]: 13.3 ± 1.6 µM

SMILES: O=C(Cn1ccnc1[N+](=O)[O-])NCc1ccccc1 [benznidazole, reference compound]
- IC50 [3, 7]: 12.8 ± 0.7 µM
- IC50 [4]: 5 ± 1.5 µM
- CC50 at 96 h [5]: > 200 µM

SMILES: CCCCCCCCCCCCCCCCOP(=O)([O-])OCC[N+](C)(C)C [miltefosine, reference compound]
- IC50 [2, 6]: 6.5 ± 3 µM
- CC50 at 96 h [5]: 120 ± 4.2 µM
